What was measured:
Format in all cases: cell-based
H1N1 influenza virus = test system: H1N1 influenza virus
[1] = test system: herpes simplex virus type 1 (strain L-2)
[2] = test system: vesicular stomatitis virus (reference strain)

KKRKRKRKR [derivative 54]
0%: % cytoprotective antiviral activity, Inf (H1N1 influenza virus) | % cytoprotective antiviral activity, Herp [1] | % cytoprotective antiviral activity, Vesic [2]

— patent US11339502B2, “Combinatorial derivatives of oligopeptides having antiviral properties” (priority 2017, dated 2022)
